Values of other authors as cited in patent publication US20070160542A1, “Methods and systems for the delivery of corticosteroids having an enhanced pharmacokinetic profile” (Verus Pharmaceuticals, Inc., priority 2005, published 2007).

solubility in alcohols: readily soluble | solubility in water: virtually insoluble
SMILES: CCCC1O[C@@H]2C[C@H]3[C@@H]4CCC5=CC(=O)C=C[C@]5(C)[C@H]4[C@@H](O)C[C@]3(C)[C@]2(C(=O)CO)O1 (stereo partly drawn) [budesonide, (R,S)-11β,16α,17,21-tetrahydroxypregna-1,4-diene-3,20-dione cyclic 16,17-acetal with butyraldehyde]
